# Key:
# HEK-CMV-Luc2-Hygro cells = experiment: Effect of exogenous polyamines on luciferase expression and cell growth; details: for effect of higher concentrations on luciferase expression and viable cell: concentrations above the optimum; for concentration with inhibitory effects: culture medium with ruminant serum
# Method: FIG. 13: Effect of exogenous polyamines on luciferase expression and cell growth. Two different passages of cells were treated with the indicated concentrations of polyamines and each biological sample was measured in triplicates. Error bars represent SEM.
# To further verify this, the impacts of exogenously added polyamines on luciferase expression level and viable cell number were determined.
# [1] = tested on: T-REx-293-NTSR1-GFP cells; experiment: High-throughput human miRNA mimic library screen, image-based per cell green fluorescence (NTSR1-GFP expression); details: per cell green fluorescence intensity; for MAD-based z-score: 72 h after transfection plus 24 h tetracycline induction
# Method: T-REx-293-NTSR1-GFP cells were screened with a miRNA mimic library (Qiagen) based on Sanger miRBase™ 13.0 and consisting of 875 miRNAs mimics. For transfection, 0.8 pmol of each mimic was spotted to 384 well plate wells (Corning) and 20 μL of serum-free DMEM containing 0.1 μL of Lipofectamine™ RNAiMax (Life Technologies) was then added to each well. This lipid-miRNA mixture was incubated at ambient temperature for 30 min prior to adding 2000 cells in 20 μL of DMEM containing 20% certified FBS (Gibco). Transfected cells were incubated at 37° C. in 5% CO2 for 72 hours and induced with 1 μg/mL tetracycline for 24 hours for NTSR1-GFP expression. Cells were then fixed with 2% paraformaldehyde (Electron Microscopy Sciences), stained with Hoechst™ 33342 (Life Technologies) for 45 minutes and gently washed with PBS. Plates were imaged with an ImageXpress Micro XL™ (Molecular Devices). Total cell number and per cell green fluorescence intensity were calculated using MetaXpress™ software (Molecular Devices) employing the Multi-Wavelength Cell Scoring™ application module. […] A full column of positive control siRNA targeting GFP (GFP-22 siRNA, Qiagen) was also used as on-plate reference for transfection efficiency. The median absolute deviation (MAD)-based z-score was calculated for each sample.
# [2] = tested on: CMV-Luc2-HygroHEK293 cell line; experiment: Validation of miRNAs with luciferase-expressing cells (ONE-Glo / CellTiter-Glo, 12-well); type: cell-based, human; details: 40 nM miRNA, 72 h; for improvement of luciferase expression (per cell luciferase activity): 12-well, versus siN.C.
# Method: CMV-Luc2-HygroHEK293 cell line constitutively expressing luciferase is purchased from Promega. Validation transfections were performed in 12-well plates with miScript miRNA mimics (Qiagen, Cat. No. 219600-S0), SilencerSelect™ Negative Control #2 and lethal control siRNA (Qiagen AllStars Cell Death Control™) served as a control for transfection efficiency. Cells were transfected in duplicates as described above in the screening method with the following modification: 0.1 million cells were transfected with 40 nM miRNA using 6.25 ul Lipofectamine™ RNAiMax in a total volume of 1 mL of media. 72 hours after transfection, 500 μL of ONE-Glo™ Reagent (Promega) was added to one set of replicates for luciferase activity quantification and 500 μL of CellTiter-Glo™ Reagent (Promega) was added to the second set of replicates for viable cell density measurement. All plates were incubated at room temperature for 20 minutes to stabilize luminescent signal and then measured with SpectraMax i3™ plate reader (Molecular Devices). Per cell luciferase production was calculated from overall luciferase activity and viable cell number.
# HEK-GPC3-hFc cell line = experiment: Validation of miRNAs with GPC3-hFc-expressing cells (ELISA and cell count); type: cell-based, human; details: 40 nM miRNA, 6 days after transfection, versus siN.C.
# Method: HEK-GPC3-hFc cell line constitutively secreting glypican-3 hFc-fusion protein (GPC3-hFc) was a gift from the National Cancer Institute of the NIH. Cells were grown in DMEM supplemented with 10% FBS in a humidified incubator set at 37° C. and 5% CO2.
# Cells were transfected in 12-well plates as described above in the screening method with the following modification: 0.15 million cells were transfected with 40 nM miRNA using 6.25 ul Lipofectamine™ RNAiMax in a total volume of 1 mL of media. 6 days after transfection, cell culture supernatant was collected and cleared using centrifuge for GPC3-hFc concentration determination with ELISA and cells were detached and counted by trypan blue exclusion using a CEDEX™ cell quantification system (Roche, Mannheim, Germany). Per cell GPC3-hFc production can be calculated from overall GPC3-hFc yield and viable cell number.
# AffiniPure™ F(ab′)2 Fragment Goat Anti-Human IgG (min X Bov, Ms, Rb Sr Prot, Cat. 109-006-170, Jackson Immunology) was used to coat a 96-well plate at 5 μg/mL in PBS buffer, 50 μL per well, at 4° C. overnight. After the plate was blocked with 2% BSA in PBS buffer, pre-diluted cell culture supernatant was added, and the plate was incubated at room temperature for one hour to allow binding to occur. After the plate was washed twice with PBS containing 0.05% Tween 20, Peroxidase-conjugated AffiniPure™ Goat-anti-uman IgG (Cat. 109-035-098, Jackson Immunology) was added at 1:4000 dilutions, 50 ul/well. Following incubating at room temperature for one hour, the plate was washed 4 times and detected with Peroxidase Substrate System (KPL).
# NTSR1 = experiment: [3H]NT binding assay on detergent-solubilized cells for functional expression of NTSR1; type: cell-based; details: [3H]NT binding
# Method: Validation transfections were performed in 12-well plates with miScript™ miRNA mimics (Qiagen, Cat. No. 219600-S0), SilencerSelect™ Negative Control #2 and lethal control siRNA (Qiagen AllStars Cell Death Control™) served as a control for transfection efficiency. Cells were transfected as described for screening except 0.15 million cells were transfected with 40 nM miRNA using 6.25 ul Lipofectamine™ RNAiMax in a total volume of 1 mL of media. 72 hours after transfection, cells were induced with 1 μg/mL tetracycline. 24 hours later, cells from each well were detached with non-enzymatic cell dissociation buffer (Gibco, Cat. No. 13150-016) and washed twice with cold PBS. Cell densities and viability were determined by trypan blue exclusion using a CEDEX™ cell quantification system (Roche, Mannheim, Germany). Based on the counts, cell densities were adjusted to 0.5 million cells/ml with PBS and then subject to flow cytometry analysis. The remaining cells were pelleted and frozen on dry ice for [^3H]NT binding assays.
# The detergents n-Dodecyl-β-D-maltoside (LM), 3-[(3-cholamidopyropyl) dimethylammonio]-1-propane sulfonate (CHAPS) and cholesteryl hemisuccinate Tris salt (CHS) were obtained from Anatrace. Cell pellets from 2 mL of suspension culture were suspended in Tris-glycerol-NaCl buffer. Then the detergents LM, CHAPS and CHS were added to give a final buffer composition of 50 mM TrisHCl pH 7.4, 200 mM NaCl, 30% (v/v) glycerol, 1% (w/v) LM, and 0.6% (w/v) CHAPS and 0.12% (w/v) CHS in a total volume of 0.5 mL. The samples were placed on a rotating mixer at 4° C. for 1 hour. Cell debris and non-solubilized material were removed by ultracentrifugation (TL100 rotor, 60 k rpm, 4° C., 30 min in Optima Max™ bench-top ultracentrifuge, Beckman), and the supernatants containing detergent-solubilized NTSR1 were used to determine the total number of expressed receptors by a detergent-based radio-ligand binding assay (see below).
# Tritiated neurotensin agonist [^3H]NT ([3,11-tyrosyl-3,5-^3H(N)]-pyro[…] SEQ ID NO:27) was purchased from Perkin Elmer. Ligand-binding assays with detergent-solubilized receptors were carried out in TEBB assay buffer (50 mM Tris pH 7.4, 1 mM EDTA, 40 μg/mL bacitracin, 0.1% BSA) containing 0.1% (w/v) LM, 0.2% (w/v) CHAPS and 0.04% (w/v) CHS. For one-point assays, receptors were incubated with 2 nM [^3H]NT on ice for 1 hour in a volume of 150 μL. The concentration of [^3H]NT used was at least 5-fold above the apparent dissociation constants for detergent-solubilized NTSR1 to allow high receptor occupancy. Separation of the receptor-ligand complex from free ligand (100 μL) was achieved by centrifugation-assisted gel filtration using Bio-Spin™ 30 Tris columns (BioRad), equilibrated with RDB buffer (50 mM Tris-HCl, pH 7.4, 1 mM EDTA, 0.1% (w/v) LM, 0.2% (w/v) CHAPS, 0.04% (w/v) CHS). Non-specific [^3H]NT binding of 220 dpm was subtracted from total binding to calculate the total amount of receptors in T-REx-293-NTSR1-GFP cells. The number of functional NTSR1 was estimated by specific [^3H]NT binding assuming one ligand-binding site per receptor molecule. The number of cells in the assay was derived by cell counting at cell harvest. This approach led to the calculation of the parameter “receptors/cell”.
Compound,Signal relative to negative control (%) [1],MAD-based z-score [1],improvement of per cell GPC3-hFc secretion (HEK-GPC3-hFc cell line),improvement of functional expression of NTSR1 compared with siN.C. (NTSR1),improvement of luciferase expression (per cell luciferase activity) [2],further results
NCCCCN [putrescine],,,,,,increase of luciferase expression (HEK-CMV-Luc2-Hygro cells; added to medium at 100 μM): up to 40%; enhanced growth (HEK-CMV-Luc2-Hygro cells; addition at 50 μM): 10%; effect of higher concentrations on luciferase expression and viable cell (HEK-CMV-Luc2-Hygro cells): did not lead to further enhancement of luciferase production
NCCCCNCCCN [spermidine],,,,,,increase in cell growth (HEK-CMV-Luc2-Hygro cells; at 10 μM): 24%; increase in luciferase expression (HEK-CMV-Luc2-Hygro cells; at 20 μM): 36%; concentration with inhibitory effects (HEK-CMV-Luc2-Hygro cells): > 100 µM
NCCCNCCCCNCCCN [spermine],,,,,,increase in luciferase expression (HEK-CMV-Luc2-Hygro cells; at 10 μM): 16%; effect of higher concentrations on luciferase expression and viable cell (HEK-CMV-Luc2-Hygro cells): caused reduction in both luciferase expression and viable cell; concentration with inhibitory effects (HEK-CMV-Luc2-Hygro cells): > 20 µM
"AAGCUGCCAGUUGAAGAACUGU (listed as RNA, chemistry not given here; listed as Homo sapiens) [miR-22-3p, human miRNA mimic]",158%,2.3,enhanced per cell GPC3-hFc secretion,,,cell growth (viable cell density) [2]: inhibited cell growth; overall production of luciferase higher than negative control siN.C. [2]: 127%; change of overall GPC3-hFc production (HEK-GPC3-hFc cell line): effectively enhanced overall GPC3-hFc
"ACCUGGCAUACAAUGUAGAUUU (listed as RNA, chemistry not given here; listed as Homo sapiens) [miR-221-5p, human miRNA mimic]",248%,5.3,,not associated with enhanced binding activity,,
"AGUUCUUCAGUGGCAAGCUUUA (listed as RNA, chemistry not given here; listed as Homo sapiens) [miR-22-5p, human miRNA mimic]",215%,4.0,enhanced per cell GPC3-hFc secretion,,relevant for improving luciferase expression,change of overall GPC3-hFc production (HEK-GPC3-hFc cell line): effectively enhanced overall GPC3-hFc
"AUCGCUGCGGUUGCGAGCGCUGU (listed as RNA, chemistry not given here; listed as Homo sapiens) [miR-639, human miRNA mimic]",165%,2.4,,not associated with enhanced binding activity,,
"CACUGGCUCCUUUCUGGGUAGA (listed as RNA, chemistry not given here; listed as Homo sapiens) [miR-892b, human miRNA mimic]",201%,3.7,,not associated with enhanced binding activity,239%,cell growth (viable cell density) [2]: inhibited cell growth; overall production of luciferase higher than negative control siN.C. [2]: 188%
"CUUUUUGCGGUCUGGGCUUGC (listed as RNA, chemistry not given here; listed as Homo sapiens) [miR-129-5p, human miRNA mimic]",172%,2.7,,not associated with enhanced binding activity,,
"UAAGGUGCAUCUAGUGCAGAUAG (listed as RNA, chemistry not given here; listed as Homo sapiens) [miR-18a-5p, human miRNA mimic]",149%,2.0,enhanced per cell GPC3-hFc secretion,improved functional activity levels,relevant for improving luciferase expression,change of overall GPC3-hFc production (HEK-GPC3-hFc cell line): effectively enhanced overall GPC3-hFc
"UAAUACUGUCUGGUAAAACCGU (listed as RNA, chemistry not given here; listed as Homo sapiens) [miR-429, human miRNA mimic]",212%,4.2,enhanced per cell GPC3-hFc secretion,improved functional activity levels,relevant for improving luciferase expression,
